From patent publication US20250163047A1, “HETEROCYCLIC COMPOUNDS, COMPOSITIONS THEREOF, AND METHODS OF TREATMENT THEREWITH” (BeiGene, Ltd., priority 2022, published 2025) come the findings set out here.

For one experiment, the target named is T1, Cbl (aa49-434) (Homo sapiens, UniProt P22681).
T1 construct: Cbl (aa49-434, in-house); made in house
T1 sequence (P22681 49-434): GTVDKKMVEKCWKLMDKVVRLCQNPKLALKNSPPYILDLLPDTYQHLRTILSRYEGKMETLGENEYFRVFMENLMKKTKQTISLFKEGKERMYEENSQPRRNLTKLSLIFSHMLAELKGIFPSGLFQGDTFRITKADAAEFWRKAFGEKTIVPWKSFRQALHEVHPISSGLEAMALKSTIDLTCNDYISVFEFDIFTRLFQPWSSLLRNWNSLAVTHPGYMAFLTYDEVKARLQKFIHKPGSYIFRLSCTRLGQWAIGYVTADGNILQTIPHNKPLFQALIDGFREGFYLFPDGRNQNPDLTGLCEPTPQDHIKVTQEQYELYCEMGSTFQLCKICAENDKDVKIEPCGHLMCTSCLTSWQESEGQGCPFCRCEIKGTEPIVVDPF
In words: Co-expressed Cbl with BirA biochemical assay (CBL/E2-Ub binding, HTRF). The settings on record: 0.6 nM Cbl co-expressed with BirA, read-out: co-express CBL/E2-Ub-binding assay IC50. The text has this:
(§1) The assay in the absence of a Cbl-b/Cbl inhibitor, where phosphorylation of Cbl-b/Cbl by the Src kinase allows UbcH5B-Ub to bind to Cbl-b/Cbl and brings the Bodipy-Fluorescein tagged ubiquitin in proximity to the streptavidin-terbium bound to the N-terminal biotinylated Avi-tagged Cbl-b/Cbl. […] The lack of a FRET signal indicates Cbl-b/Cbl is inhibited by the Cbl-b/Cbl inhibitor.

Another experiment has as its target T2, Cbl-b (aa36-427) (Homo sapiens, UniProt Q13191).
T2 construct: Cbl-b (aa36-427, in-house); made in house
Briefly: Co-expressed Cbl-b with BirA biochemical assay (CBLB/E2-Ub binding, HTRF). The settings on record: 0.6 nM Cbl-b co-expressed with BirA, HTRF; read-out: co-express CBLB/E2-Ub-binding assay IC50.
Source text: as §1

SMILES strings stand for the structures.

T2 sequence (Q13191 36-427): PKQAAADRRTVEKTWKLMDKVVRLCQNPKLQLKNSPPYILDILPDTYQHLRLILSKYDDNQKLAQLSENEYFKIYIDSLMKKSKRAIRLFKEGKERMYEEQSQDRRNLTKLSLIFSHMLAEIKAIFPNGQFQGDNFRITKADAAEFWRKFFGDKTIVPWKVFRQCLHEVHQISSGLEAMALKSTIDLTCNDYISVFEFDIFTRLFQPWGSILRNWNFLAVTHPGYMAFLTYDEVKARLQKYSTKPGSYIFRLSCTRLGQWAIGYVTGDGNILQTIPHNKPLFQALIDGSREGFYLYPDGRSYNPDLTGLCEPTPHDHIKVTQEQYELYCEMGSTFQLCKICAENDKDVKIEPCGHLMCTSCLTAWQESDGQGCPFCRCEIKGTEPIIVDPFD

For `Cn1cnnc1[C@]1(c2cncc(NC(=O)c3cc(CNCC4CCC4)c4ccsc4n3)c2)C[C@H](C)C1` [Compound B15, 4-(((cyclobutylmethyl)amino)methyl)-N-(5-((1s, 3s)-3-methyl-1-(4-methyl-4H-1,2,4-triazol-3-yl)cyclobutyl)pyridin-3-yl)thieno[2,3-b]pyridine-6-carboxamide], the IC50 worked out at 1.9 nM at Cbl (aa49-434) and 0.9 nM on Cbl-b (aa36-427).

For the molecule `Cn1cnnc1[C@]1(c2cccc(NC(=O)c3cc(CNCC4CCC4)cn4c(F)cnc34)c2)C[C@H](C)C1` [Compound A52, 6-(((cyclobutylmethyl)amino)methyl)-3-fluoro-N-(3-((1s, 3s)-3-methyl-1-(4-methyl-4H-1,2,4-triazol-3-yl)cyclobutyl)phenyl)imidazo[1,2-a]pyridine-8-carboxamide], the IC50 on Cbl (aa49-434) was 3.4 nM; at Cbl-b (aa36-427), 0.8 nM.

For the molecule `CCn1cnnc1[C@]1(c2cccc(NC(=O)c3cc(CNC4(C)CC4)cn4ccnc34)c2)C[C@H](C)C1` [Compound A85, N-(3-((1s, 3s)-1-(4-ethyl-4H-1,2,4-triazol-3-yl)-3-methylcyclobutyl)phenyl)-6-(((1-methylcyclopropyl)amino)methyl)imidazo[1,2-a]pyridine-8-carboxamide], the IC50 on Cbl (aa49-434) stood at 26 nM; at Cbl-b (aa36-427), 3.4 nM.

For the molecule `C[C@H]1CCCN(Cc2cc(C(=O)Nc3cccc([C@]4(c5nncn5C)C[C@@H](CC#N)C4)c3)n3ncnc3c2)C1` [Compound A14, N-(3-((1s,3R)-3-(cyanomethyl)-1-(4-methyl-4H-1,2,4-triazol-3-yl)cyclobutyl)phenyl)-7-(((S)-3-methylpiperidin-1-yl)methyl)-[1,2,4]triazolo[1,5-a]pyridine-5-carboxamide], the results for the IC50 at Cbl (aa49-434) and at Cbl-b (aa36-427) were 185 nM and 45.3 nM, respectively.

With `Cn1cnnc1[C@]1(c2cccc(NC(=O)c3cc(CNCC4CCC(F)(F)C4)c4c(n3)C(C)(C)CC4)c2)C[C@H](CC#N)C1` (stereo partly shown) [Compound C16, N-(3-((1s, 3s)-3-(cyanomethyl)-1-(4-methyl-4H-1,2,4-triazol-3-yl)cyclobutyl)phenyl)-4-((((3,3-difluorocyclopentyl)methyl)amino)methyl)-7,7-dimethyl-6,7-dihydro-5H-cyclopenta[b]pyridine-2-carboxamide], the IC50 on Cbl (aa49-434) was 5.3 nM; at Cbl-b (aa36-427), 1.7 nM.

Turning to `C[C@H]1CCCN(Cc2cc(C(=O)Nc3cccc([C@]4(Cc5nncn5C)C[C@@H](C#N)C4)c3)nc3c2NCC3(C)C)C1` [Compound C12, 3,3-dimethyl-7-{[(3S)-3-methylpiperidin-1-yl]methyl}-N-{3-[(1r, 3r)-3-cyano-1-[(4-methyl-1,2,4-triazol-3-yl)methyl]cyclobutyl]phenyl}-1H,2H-pyrrolo[3,2-b]pyridine-5-carboxamide], the IC50 amounted to 1.3 nM at Cbl (aa49-434) and 1.4 nM on Cbl-b (aa36-427).

For the molecule `Cn1cnnc1[C@]1(c2cncc(NC(=O)c3cc(CNC4(C)CC4)cn4ccnc34)c2)C[C@H](C)C1` [Compound A75, N-(5-((1s, 3s)-3-methyl-1-(4-methyl-4H-1,2,4-triazol-3-yl)cyclobutyl)pyridin-3-yl)-6-(((1-methylcyclopropyl)amino)methyl)imidazo[1,2-a]pyridine-8-carboxamide], the IC50 on Cbl (aa49-434) amounted to 5.5 nM; on Cbl-b (aa36-427) it was 1.7 nM.

`Cn1cnnc1[C@]1(c2cccc(NC(=O)c3cc(CN[C@H]4CCC(F)(F)C4)c4[nH]ccc4n3)c2)C[C@H](CC#N)C1` [Compound B17, N-(3-((1s,3S)-3-(cyanomethyl)-1-(4-methyl-4H-1,2,4-triazol-3-yl)cyclobutyl)phenyl)-7-((((R)-3,3-difluorocyclopentyl)amino)methyl)-1H-pyrrolo[3,2-b]pyridine-5-carboxamide]: the IC50 on Cbl (aa49-434) turned out to be 3.84 nM; on Cbl-b (aa36-427), 1.22 nM.

For `Cn1cnnc1[C@]1(c2cccc(NC(=O)c3cc(CNCC4CCC4)c4ccsc4n3)c2)C[C@H](C)C1` [Compound B41, 4-{[(cyclobutylmethyl)amino]methyl}-N-{3-[(1r, 3s)-3-methyl-1-(4-methyl-1,2,4-triazol-3-yl)cyclobutyl]phenyl}thieno[2,3-b]pyridine-6-carboxamide], the IC50 came out at 2.3 nM at Cbl (aa49-434) and 0.8 nM on Cbl-b (aa36-427).

Regarding `Cn1cnnc1[C@]1(c2cccc(NC(=O)c3cc(CNC4(C)CC4)cn4ccnc34)c2)C[C@H](C)C1` [Compound A16, N-(3-((1s, 3s)-3-methyl-1-(4-methyl-4H-1,2,4-triazol-3-yl)cyclobutyl)phenyl)-6-(((1-methylcyclopropyl)amino)methyl)imidazo[1,2-a]pyridine-8-carboxamide], the IC50 was determined as 5.9 nM at Cbl (aa49-434) and 0.9 nM on Cbl-b (aa36-427).

`Cn1ccc2nc(C(=O)Nc3cccc([C@]4(c5nncn5C)C[C@@H](CC#N)C4)c3)cc(CNC3(C)CCC3)c21` [Compound B56, N-(3-((1s, 3s)-3-(cyanomethyl)-1-(4-methyl-4H-1,2,4-triazol-3-yl)cyclobutyl)phenyl)-1-methyl-7-(((1-methylcyclobutyl)amino)methyl)-1H-pyrrolo[3,2-b]pyridine-5-carboxamide]: the IC50 at Cbl (aa49-434) was determined as 32 nM; at Cbl-b (aa36-427), 1.4 nM.

On to `Cn1cnnc1[C@]1(c2cccc(NC(=O)c3cc(CNCC4CCCC4)cn4c(F)cnc34)c2)C[C@H](C)C1` [Compound A51, 6-(((cyclopentylmethyl)amino)methyl)-3-fluoro-N-(3-((1s, 3s)-3-methyl-1-(4-methyl-4H-1,2,4-triazol-3-yl)cyclobutyl)phenyl)imidazo[1,2-a]pyridine-8-carboxamide], for which the IC50 came to 4.3 nM at Cbl (aa49-434) and 1.5 nM at Cbl-b (aa36-427).

Turning to `Cn1cnnc1[C@]1(c2cccc(NC(=O)c3cc(CNCC4(C)CCCC4)c4c(n3)C(C)(C)CN4)c2)C[C@H](CC#N)C1` [Compound C22, 3,3-dimethyl-7-({[(1-methylcyclopentyl)methyl]amino}methyl)-N-{3-[(1s, 3s)-3-(cyanomethyl)-1-(4-methyl-1,2,4-triazol-3-yl)cyclobutyl]phenyl}-1H,2H-pyrrolo[3,2-b]pyridine-5-carboxamide], the IC50 was found to be 6.1 nM on Cbl (aa49-434) and 1.4 nM at Cbl-b (aa36-427).

On to `C[C@H]1CCCN(Cc2cc(C(=O)Nc3cccc([C@]4(c5nncn5C)C[C@@H](CC#N)C4)c3)nc3sccc23)C1` [Compound B18, 4-{[(3S)-3-methylpiperidin-1-yl]methyl}-N-{3-[(1s, 3s)-3-(cyanomethyl)-1-(4-methyl-1,2,4-triazol-3-yl)cyclobutyl]phenyl}thieno[2,3-b]pyridine-6-carboxamide], for which the figures for the IC50 on Cbl (aa49-434) and at Cbl-b (aa36-427) were 13 nM and 1.6 nM, respectively.

Regarding `Cn1cnnc1[C@]1(c2cccc(NC(=O)c3cc(CNCC4CCC4)cn4ccnc34)c2)C[C@H](CC#N)C1` [Compound A43, N-(3-((1s, 3s)-3-(cyanomethyl)-1-(4-methyl-4H-1,2,4-triazol-3-yl)cyclobutyl)phenyl)-6-(((cyclobutylmethyl)amino)methyl)imidazo[1,2-a]pyridine-8-carboxamide], the IC50 came out at 12 nM on Cbl (aa49-434) and 2 nM on Cbl-b (aa36-427).

On to `C[C@H](NCc1cc(C(=O)Nc2cncc([C@]3(c4nncn4C)C[C@@H](C)C3)c2)nc2c1CCC2(F)F)C1CCC1` [Compound C41, 4-({[(1S)-1-cyclobutylethyl]amino}methyl)-7,7-difluoro-N-{5-[(1r, 3s)-3-methyl-1-(4-methyl-1,2,4-triazol-3-yl)cyclobutyl]pyridin-3-yl}-5H,6H-cyclopenta[b]pyridine-2-carboxamide], for which the IC50 on Cbl (aa49-434) worked out at 7 nM; on Cbl-b (aa36-427), 1.5 nM.

For the molecule `Cn1cnnc1[C@]1(c2cncc(NC(=O)c3cc(CNCC4CCC4)c4[nH]cc(Cl)c4n3)c2)C[C@H](C)C1` [Compound B53, 3-chloro-7-(((cyclobutylmethyl)amino)methyl)-N-(5-((1s, 3s)-3-methyl-1-(4-methyl-4H-1,2,4-triazol-3-yl)cyclobutyl)pyridin-3-yl)-1H-pyrrolo[3,2-b]pyridine-5-carboxamide], the IC50 on Cbl (aa49-434) was found to be 9.7 nM; at Cbl-b (aa36-427), 3.1 nM.

As for `C[C@H]1CCCN(Cc2cc(C(=O)Nc3cccc(C4(Cc5nncn5C)COC4)c3)c3nc(F)cn3c2)C1` [Compound A7, (S)-2-fluoro-N-(3-(3-((4-methyl-4H-1,2,4-triazol-3-yl)methyl)oxetan-3-yl)phenyl)-6-((3-methylpiperidin-1-yl)methyl)imidazo[1,2-a]pyridine-8-carboxamide], the values for the IC50 on Cbl (aa49-434) and on Cbl-b (aa36-427) were 14.4 nM and 4.4 nM, respectively.

Turning to `Cn1cnnc1[C@]1(c2cccc(NC(=O)c3cc(CNCC4(F)CCC4)cn4ccnc34)c2)C[C@H](CC#N)C1` [Compound A37, N-(3-((1s, 3s)-3-(cyanomethyl)-1-(4-methyl-4H-1,2,4-triazol-3-yl)cyclobutyl)phenyl)-6-((((1-fluorocyclobutyl)methyl)amino)methyl)imidazo[1,2-a]pyridine-8-carboxamide], the IC50 on Cbl (aa49-434) amounted to 4.8 nM; on Cbl-b (aa36-427) it was 0.8 nM.

Regarding `Cn1cnnc1CC1(c2cccc(NC(=O)c3cc(CNC4CCCCC4)cn4ccnc34)c2)COC1` [Compound A9, 6-((cyclohexylamino)methyl)-N-(3-(3-((4-methyl-4H-1,2,4-triazol-3-yl)methyl)oxetan-3-yl)phenyl)imidazo[1,2-a]pyridine-8-carboxamide], the figures for the IC50 on Cbl (aa49-434) and on Cbl-b (aa36-427) were 24.3 nM and 12.8 nM, respectively.
